Test results reported in the NIST ThermoML archive (doi:10.1021/je0340248).
± gives the expanded uncertainty stated by the source.

Experiment: xn = mol fraction of the nth substance listed
Details: 101 kPa, Liquid

CC(=O)OCCC(C)C [3-methylbutyl ethanoate] + CC(O)CO
Details	mass density, 298.15 K [kg/m3]	mass density, 303.15 K [kg/m3]	mass density, 308.15 K [kg/m3]	mass density, 313.15 K [kg/m3]	speed of sound, 298.15 K [m/s]	speed of sound, 308.15 K [m/s]	viscosity, 298.15 K [mPa·s]	viscosity, 308.15 K [mPa·s]
x1 = 0.0455	1017.21 ± 0.37	1013.29 ± 0.38	1009.48 ± 0.39	1005.69 ± 0.4	1460 ± 2	1425 ± 2	31.61 ± 0.43	18.4 ± 0.34
x1 = 0.1457	988 ± 0.47	983.78 ± 0.48	979.64 ± 0.49	976.02 ± 0.5	1398 ± 2	1369 ± 2	16.42 ± 0.26	10.43 ± 0.16
x1 = 0.2483	963.53 ± 0.56	959.11 ± 0.58	954.73 ± 0.59	951.27 ± 0.6	1346 ± 2	1320 ± 2	8.962 ± 0.14	6.168 ± 0.095
x1 = 0.3508	943.13 ± 0.64	938.57 ± 0.66	934.01 ± 0.67	930.68 ± 0.68	1304 ± 2	1281 ± 2	5.224 ± 0.084	3.864 ± 0.06
x1 = 0.452	926.02 ± 0.71	921.33 ± 0.73	916.63 ± 0.74	913.4 ± 0.75	1270 ± 2	1248 ± 2	3.269 ± 0.052	2.574 ± 0.041
x1 = 0.4959	919.36 ± 0.74	914.62 ± 0.75	909.86 ± 0.77	906.68 ± 0.78	1258 ± 2	1235 ± 2	2.721 ± 0.043	2.196 ± 0.035
x1 = 0.5551	911.01 ± 0.77	906.21 ± 0.79	901.38 ± 0.8	898.24 ± 0.81	1243 ± 2	1220 ± 2	2.165 ± 0.034	1.802 ± 0.029
x1 = 0.6523	898.71 ± 0.82	893.81 ± 0.84	888.88 ± 0.86	885.8 ± 0.87	1223 ± 2	1199 ± 2	1.56 ± 0.025	1.357 ± 0.022
x1 = 0.7497	887.92 ± 0.87	882.93 ± 0.89	877.91 ± 0.9	874.87 ± 0.91	1211 ± 2	1182 ± 2	1.191 ± 0.02	1.075 ± 0.018
x1 = 0.8495	878.28 ± 0.91	873.2 ± 0.93	868.1 ± 0.95	865.12 ± 0.95	1202 ± 2	1169 ± 2	0.961 ± 0.016	0.893 ± 0.015
x1 = 0.9426	870.47 ± 0.95	865.34 ± 0.96	860.17 ± 0.98	857.24 ± 0.99	1197 ± 2	1160 ± 2	0.831 ± 0.014	0.788 ± 0.014

OCCOCCO [diethylene glycol] + CCOC(C)=O
Details	mass density, 298.15 K [kg/m3]	mass density, 303.15 K [kg/m3]	mass density, 308.15 K [kg/m3]	mass density, 313.15 K [kg/m3]	speed of sound, 298.15 K [m/s]	speed of sound, 308.15 K [m/s]	viscosity, 298.15 K [mPa·s]	viscosity, 308.15 K [mPa·s]
x2 = 0.0441	1103.89 ± 0.31	1100.06 ± 0.3	1096.4 ± 0.3	1092.83 ± 0.29	1557 ± 2	1527 ± 2	26.54 ± 0.38	14.6 ± 0.29
x2 = 0.1491	1081.32 ± 0.32	1077.52 ± 0.32	1073.43 ± 0.32	1069.24 ± 0.32	1501 ± 2	1467 ± 2	19.33 ± 0.29	10.14 ± 0.21
x2 = 0.2504	1059.83 ± 0.35	1055.84 ± 0.35	1051.57 ± 0.36	1047.06 ± 0.36	1444 ± 2	1410 ± 2	13.79 ± 0.22	7.076 ± 0.16
x2 = 0.3491	1039 ± 0.4	1034.73 ± 0.4	1030.34 ± 0.41	1025.66 ± 0.42	1393 ± 2	1358 ± 2	9.631 ± 0.16	4.946 ± 0.12
x2 = 0.4487	1017.94 ± 0.46	1013.34 ± 0.47	1008.79 ± 0.48	1004.01 ± 0.49	1346 ± 2	1311 ± 2	6.504 ± 0.11	3.42 ± 0.079
x2 = 0.5011	1006.8 ± 0.49	1002.03 ± 0.5	997.36 ± 0.52	992.53 ± 0.53	1322 ± 2	1287 ± 2	5.226 ± 0.091	2.808 ± 0.064
x2 = 0.5485	996.65 ± 0.52	991.74 ± 0.54	986.94 ± 0.55	982.07 ± 0.56	1301 ± 2	1267 ± 2	4.257 ± 0.075	2.345 ± 0.052
x2 = 0.6492	974.85 ± 0.59	969.64 ± 0.61	964.5 ± 0.62	959.48 ± 0.63	1261 ± 2	1226 ± 2	2.692 ± 0.048	1.591 ± 0.032
x2 = 0.7505	952.44 ± 0.67	946.98 ± 0.68	941.47 ± 0.7	936.2 ± 0.71	1223 ± 2	1188 ± 2	1.645 ± 0.029	1.068 ± 0.02
x2 = 0.8492	930.05 ± 0.75	924.36 ± 0.76	918.52 ± 0.78	912.88 ± 0.8	1189 ± 2	1151 ± 2	0.988 ± 0.018	0.719 ± 0.013
x2 = 0.9445	907.81 ± 0.83	901.89 ± 0.84	895.89 ± 0.86	889.73 ± 0.88	1157 ± 2	1116 ± 2	0.587 ± 0.011	0.487 ± 0.009

OCCOCCO [diethylene glycol] + COC(C)=O
Details	mass density, 298.15 K [kg/m3]	mass density, 303.15 K [kg/m3]	mass density, 308.15 K [kg/m3]	mass density, 313.15 K [kg/m3]	speed of sound, 298.15 K [m/s]	speed of sound, 308.15 K [m/s]	viscosity, 298.15 K [mPa·s]	viscosity, 308.15 K [mPa·s]
x2 = 0.0406	1107.83 ± 0.31	1103.83 ± 0.31	1100.41 ± 0.3	1097.07 ± 0.3	1562 ± 2	1533 ± 2	26.42 ± 0.38	14.2 ± 0.3
x2 = 0.1512	1091.77 ± 0.32	1087.47 ± 0.32	1083.89 ± 0.32	1080.13 ± 0.32	1513 ± 2	1485 ± 2	18.27 ± 0.29	8.812 ± 0.21
x2 = 0.2516	1076.55 ± 0.34	1071.84 ± 0.34	1068.15 ± 0.34	1063.99 ± 0.35	1472 ± 2	1441 ± 2	12.72 ± 0.21	5.78 ± 0.15
x2 = 0.3488	1061.26 ± 0.37	1056.15 ± 0.38	1052.35 ± 0.38	1047.79 ± 0.38	1431 ± 2	1398 ± 2	8.747 ± 0.15	3.883 ± 0.11
x2 = 0.44	1046.36 ± 0.41	1040.88 ± 0.42	1036.96 ± 0.42	1032.05 ± 0.43	1392 ± 2	1357 ± 2	6.023 ± 0.11	2.698 ± 0.077
x2 = 0.4926	1037.46 ± 0.44	1031.79 ± 0.44	1027.79 ± 0.45	1022.69 ± 0.46	1370 ± 2	1334 ± 2	4.811 ± 0.089	2.196 ± 0.062
x2 = 0.5504	1027.35 ± 0.46	1021.49 ± 0.47	1017.4 ± 0.48	1012.1 ± 0.49	1345 ± 2	1308 ± 2	3.728 ± 0.069	1.757 ± 0.047
x2 = 0.6509	1008.76 ± 0.51	1002.63 ± 0.53	998.36 ± 0.53	992.71 ± 0.55	1301 ± 2	1260 ± 2	2.345 ± 0.044	1.203 ± 0.029
x2 = 0.751	988.53 ± 0.57	982.17 ± 0.59	977.74 ± 0.6	971.76 ± 0.62	1258 ± 2	1213 ± 2	1.44 ± 0.027	0.834 ± 0.018
x2 = 0.8504	966.18 ± 0.64	959.59 ± 0.66	955.04 ± 0.67	948.73 ± 0.69	1214 ± 2	1168 ± 2	0.866 ± 0.016	0.586 ± 0.012
x2 = 0.9429	942.76 ± 0.72	935.89 ± 0.74	931.35 ± 0.75	924.7 ± 0.77	1174 ± 2	1127 ± 2	0.527 ± 0.01	0.426 ± 0.008
